Patent US5236914A, “Derivatives of metalloporphyrins and application thereof for therapeutic purposes and in preparing hybrid molecules” (Centre National de la Recherche Scientifique (CNRS), priority 1988, dated 1993)
“Also recorded” adds a separate entry of the source. Read-outs that look alike come from different tables or passages of the source.

Assays:
L1210 cells = assay: cytotoxic activity on murine leukemia cells of the L1210 type (inhibition of cell growth); format: cell-based; conditions: in vitro, only ID50 lower than 2 μM considered significant, read-out: ID50 (dose inhibiting 50% of cell growth)
Experimental: The cytotoxic activity was determined on murine leukemia cells of the L1210 type according to a method already described (by C. Paoletti, S. Cros eta al., Chem. Bio. Interact, 25, 45 […]. The effect on cell growth is expressed in terms of the dose inhibiting 50% of cell growth (ID50). Only the values of ID50 lower than 2 μM can be considered as being significant from the biological point of view.

[1] = system: supercoiled form (form I) of the DNA of the bacteriophage OX 174; assay: nuclease activity: cleavage of supercoiled DNA observed by electrophoresis on agarose gel; format: biochemical; conditions: for Form I / Form II / Form III: 2 min with oxidant
Experimental: In fact, only 13% of form I remains at the end of 2 min in the presence of 250 nM of the metalloporphyrin and 5 μM of potassium hydrogen persulfate, KHSO5. The cleavages are single-strandcleavages since the form II (circular duplex DNA with one cleavage) accumulates before being converted to form III (linear duplex DNA). The experimental conditions and the details of the analytical method are given in the reference Fouquet et al. (cf. page 1).
1 μM of metalloporphyrin
pre-incubation time (DNA +
a) 20 min., b) 1 min. time of incubation

DNA = conditions: in the presence of ferric ions, molecular oxygen and reducers; cited from earlier work
[2] = 250 nM metalloporphyrin; 5 μM KHSO5; pre-incubation a) 20 min
[3] = 250 nM metalloporphyrin; 5 μM KHSO5; pre-incubation b) 1 min
[4] = 1 μM metalloporphyrin; 5 μM KHSO5; pre-incubation a) 20 min

Compound: CC(=O)[O-].CC(=O)[O-].CC(=O)[O-].CC(=O)[O-].CC(=O)[O-].C[n+]1ccc(-c2c3nc(c(-c4cc[n+](C)cc4)c4ccc([n-]4)c(-c4cc[n+](C)cc4)c4nc(c(-c5ccc([N+](C)(C)C)cc5)c5ccc2[n-]5)C=C4)C=C3)cc1.[Mn+3] [1 h) (Mn), Manganese (III) 5-(4-trimethylaminophenyl)-10, 15, 20-tris (N-methyl-4 pyridyl)-porphyrin pentaacetate]
- IC50 (L1210 cells): 540 nM
- Form I [1, 2]: 13%
- Form II [1, 2]: 78%
- Form III [1, 2]: 9%
- Form I [1, 3]: 63%
- Form II [1, 3]: 37%
- form I remaining at the end of 2 min ([1]; 250 nM metalloporphyrin, 5 μM potassium hydrogen persulfate KHSO5): 13%
- Form II [1, 4]: 59%
- Form III [1, 4]: 41%
- efficacy of cleavage / nuclease activity in words ([1]; DNA in vitro, listed as 1h): very marked; also recorded: single-strandcleavages

Compound: COc1ccc2[nH]c3c(C)c4cc[n+](CCCCC(=O)O)cc4c(C)c3c2c1 [5 b), N^2-(4-carboxybutyl)-9-methoxy-ellipticinium chloride]
- IC50 (L1210 cells; Mus musculus): > 23000 nM

Compound: Manganese (III) 5-(4-hydroxyphenyl)-10, 15, 20-tris (N-methyl-4-pyridyl)-porphyrin tetraacetate [2 n) (Mn)]
- IC50 (L1210 cells): 680 nM

Compound: bleomycin
- nuclease activity in words (DNA): high nuclease activity
